Results: paper PMC6501426 (Clinical Epigenetics, 2019)

Key:
[1] = test system: MMP2 mRNA in HCT116 cells; assay: qPCR of MMP2 in HCT116; format: cell-based, human; conditions: MC3353 0.1 and 1 μM 24 h; 5-AZA, DAC 5 days, also at 0.1 to 1 μM
Source text: (§1) RNAs were extracted by ReliaPrep™ RNA Tissue Miniprep (Promega, Madison, WI, USA) and reverse transcribed with PrimeScript RT Master Mix (Takara, Kusatsu, Shiga, Japan). cDNAs were amplified by a qPCR reaction using GoTaq qPCR Master Mix (Promega) and analyzed with the oligonucleotide pairs specific for the target genes. Relative amounts, determined with the 2^(−ΔCt) method, were normalized with respect to the human housekeeping gene L32. The primers used are as follows: L32 (forward: 5′-[…]-3′, reverse: 5′-[…]-3′), E-cadherin (forward: 5′-[…]-3′, reverse: 5′-[…]-3′), and MMP2 (forward: 5′-[…]-3′, reverse: 5′-[…]-3′).
(§2) Prompted by these findings, we investigated the ability of MC3353 to modulate EMT pathway, using 5-AZA and DAC as reference drugs. […] The levels of mRNA transcripts of E-cadherin and matrix metalloproteinase-2 (MMP2) were determined. E-cadherin is involved in the maintenance of the epithelial identity and in the control of tumor invasiveness, whereas MMP2, through degradation of type IV collagen, the most abundant component of the basement membrane, controls an essential step for metastatic progression of most cancers as well as for induction of angiogenesis.

[2] = test system: double DNMT knockout (DKO) HCT116 cells; assay: MTT proliferation assay DKO HCT116; format: cell-based, human; conditions: 24 and 48 h; MC3353 at 0.5 μM after 48 h; DAC, 5-AZA up to highest dose
Protocol: DKO HCT116 (ATCC, VA, USA) cells were propagated in Dulbecco’s modified Eagle medium (DMEM) (Euroclone, Milan, Italy) with 10% fetal bovine serum (FBS; Euroclone, Milan, Italy), 2 mM L-glutamine (Euroclone, Milan, Italy) and antibiotics (100 U/mL penicillin, 100 µg/mL streptomycin) (Euroclone, Milan, Italy).
(§3) The MTT [3-(4,5-dimethylthiazol-2-yl)-2,5-diphenyltetrazolium bromide] (Sigma-Aldrich, Milan, Italy) assay was used to determine the proliferation of HCT116 clone and DKO HCT116 cells after treatment with MC3353, 5-AZA, and DAC. 5 × 10^4 cells/well for both cell lines were plated in 24-well plate and treated, in duplicate, with compounds at several concentrations for 24 and 48 h of induction. After treatments, MTT solution was added for 3 h at 0.5 mg/mL, the purple formazan crystals were dissolved in DMSO (Sigma-Aldrich, Milan, Italy), and the absorbance was read at a wavelength of 570 nm with reader TECAN M-200.

[3] = test system: E-cadherin mRNA in HCT116 cells; assay: qPCR of E-cadherin in HCT116; format: cell-based, human; conditions: MC3353 0.1 μM 24 h; 5-AZA, DAC every 2 days for 5 days at 0.1, 1, 5 μM
Source text: as §1, §2

IOR/OS20 = assay: Osteosarcoma cell growth inhibition (trypan blue count); format: cell-based; conditions: Homo sapiens; 96 h of treatment; read-out: IC50 ± SD, cellular viability, IOR/OS20
Source text: (§4) The patient-derived human OS cell lines Saos-2, U-2OS, and MG-63 were obtained from ATCC (1992). The patient-derived OS cell lines IOR/OS9, IOR/OS20, and IOR/SARG were established and previously characterized at the Laboratory of Experimental Oncology of Rizzoli Orthopedic Institute. Cell lines were profiled for DNA copy number changes and DNA methylation status at approximately 27,000 CpG sites. The cell line PDX-OS#1-C4 was obtained from OS patient-derived xenograft (PDX) after 4 passages in the animal. All cell lines were tested for mycoplasma contamination (Mycoalert Mycoplasma Detection Kit, Lonza, Verviers, Belgium) before use and authenticated by short-tandem repeat polymerase chain reaction (STR PCR) analysis (last control December 2017) using PowerPlex ESX fast System kit (Promega, Madison, WI, USA). The following loci were verified: AMEL, D3S1358, TH01, D21S11, D18S51, D10S1248, D1S1656, D2S1338, D16S539, D22S1054, VWA, D8S1179, FGA, D2S441, D12S391, D19S433, and SE33. All cell lines were immediately amplified to constitute liquid nitrogen stocks and were never passaged for more than 1 month upon thawing. Cells were maintained in Iscove’s modified Dulbecco’s medium (IMDM) supplemented with 10% heat-inactivated FBS (Lonza, Verviers, Belgium), penicillin (20 U/mL), and streptomycin (100 μg/mL) (Sigma-Aldrich, Milan, Italy) in 37 °C humidified at 5% CO2.
(§5) To perform osteosarcoma cell growth inhibition experiments, 2 × 10^5 cells/well were plated, and MC3353 (0.1–30 μM) or DAC (0.5 μM) was added after 24 h. Cells were exposed for up to 96 h before being counted by Trypan blue vital cell count (Sigma-Aldrich, Milan, Italy). In parallel, the cells were treated with DMSO-containing medium as a control. The highest final concentration of DMSO in the medium was < 0.005%, and DMSO had no effect on cell growth.
(§6) IC50 values of compounds against cellular viability were determined by using nonlinear regression fitting curves with GraphPad Prism 8 or CalcuSyn software The t test used for statistical analyses was performed with GraphPad Prism 8. All the tests were one-tailed, and a p value < 0.05 was considered statistically significant.

MG63 = assay: as above; format: cell-based; conditions: Homo sapiens, MG-63; 96 h of treatment; read-out: IC50 ± SD, cellular viability, MG63
Source text: as §4, §5, §6

HCT116 cells = assay: MTT proliferation assay HCT116; format: cell-based, human; conditions: 24 and 48 h; MC3353 from 0.5 μM after 48 h; DAC at 10 μM
Protocol: as §3

[4] = test system: KG-1, U-937, RAJI, PC-3, MDA-MB-231 cancer cells; assay: Viability in panel of cancer cells; format: cell-based; conditions: Homo sapiens, 48 h of treatment, range over KG-1, U-937, RAJI, read-out: IC50 values, proliferation/viability in cancer cell panel
Protocol: Proliferation and viability of U-937, KG-1, RAJI, PC-3, MDA-MB-231, RPMI1788, PBMCs, and PHA_PBMCs were assessed by trypan blue exclusion assays at the indicated time points. Nuclear morphology changes associated with apoptosis and necrosis were evaluated by fluorescence microscopy after Hoechst and propidium iodide (PI) staining as previously described.
as §6

Nc1ncn([C@H]2C[C@H](O)[C@@H](CO)O2)c(=O)n1 [DAC, 5-aza-2′-deoxycytidine, reference compound]
MMP2 mRNA expression, HCT116 [1]: increased MMP2 level | effect on DKO HCT116 proliferation (MTT) [2]: No evidence of cytotoxicity | E-cadherin mRNA expression, HCT116 [3]: able to induce E-cadherin expression | IC50 (IOR/OS20): 9200 ± 2200 nM | IC50 (MG63): 200 ± 200 nM | effect on HCT116 proliferation (MTT) (HCT116 cells): modest proliferation inhibition

O=C(Nc1ccc(NC(=O)c2ccc(Nc3ccnc4ccccc34)cc2)cc1)OCc1ccccc1 [MC3353, Benzyl (4-(4-(quinolin-4-ylamino)benzamido)phenyl)carbamate]
MMP2 mRNA expression, HCT116 [1]: strongly downregulated | effect on DKO HCT116 proliferation (MTT) [2]: markedly less efficient to impair cell proliferation | E-cadherin mRNA expression, HCT116 [3]: induced E-cadherin mRNA expression transcripts | IC50 (IOR/OS20): 1500 ± 100 nM | IC50 (MG63): 2400 ± 1700 nM | IC50 [4]: 300 to 900 nM | effect on HCT116 proliferation (MTT) (HCT116 cells): markedly decreased HCT116 proliferation
